This note sets out measurements from PubChem BioAssay (NCI).

Some test systems named below: KM12 colon; SN12C renal; NCI/ADR-RES ovarian; UO-31 renal; K-562 leukemia; SNB-75 CNS; A549 NSCLC; HCC-2998 colon; NCI-H522 lung; EKVX NSCLC.
Common to all, as to assay: growth of human tumour cells (NCI), 48 h

Structures are written as SMILES.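 Five compound concentrations were applied to cells in 96-well plates for 48 hours; endpoints were derived by simple linear interpolation of the resulting dose-response curve. GI50 is the concentration that inhibits growth by half. At the TGI there is no net growth.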 Where only a bound is given, the exact number is not on record here.

Turning to `COc1cc(C(=O)/C=C/c2cc(C(=O)c3cc(OC)c(OC)c(OC)c3)ccc2OC)ccc1N`, the GI50 with KM12 colon is 0.552 µM; with SN12C renal, 1.62 µM; with NCI/ADR-RES ovarian it was 0.388 µM; with UO-31 renal, 0.762 µM; in the assay with K-562 leukemia it was 0.386 µM; with SNB-75 CNS, 1.16 µM. The results for the GI50 with A549 NSCLC and in the assay on HCC-2998 colon were 3.2 µM and 1.27 µM, respectively. The TGI in the assay on KM12 colon is 5.37 µM; in the assay on SN12C renal, 4.92 µM; in the assay with NCI/ADR-RES ovarian, 2.51 µM; in the assay on UO-31 renal, 2.12 µM; with K-562 leukemia it was over 100 µM; in the assay on SNB-75 CNS it was 4.35 µM. The TGI in the assay on A549 NSCLC was 29 µM; in the assay on HCC-2998 colon, 2.64 µM.

For the compound `CCN(CC)c1cc(/C=C/c2ccc(OC)c(OC)c2)nc2cc(F)c(F)cc12`, the GI50 with KM12 colon was over 100 µM; in the assay on SN12C renal, 10.7 µM; in the assay on NCI/ADR-RES ovarian, 7.52 µM; in the assay with UO-31 renal, 38.7 µM; in the assay with SNB-75 CNS, 1.39 µM; in the assay with A549 NSCLC, 30 µM. Further, the values for the GI50 with HCC-2998 colon and with NCI-H522 lung were 70.6 µM and 6.35 µM, respectively. The TGI was over 100 µM in the assay with KM12 colon; over 100 µM in the assay with SN12C renal; over 100 µM in the assay on NCI/ADR-RES ovarian; over 100 µM with UO-31 renal; 2.89 µM in the assay on SNB-75 CNS; over 100 µM with A549 NSCLC. The TGI in the assay with HCC-2998 colon and in the assay with NCI-H522 lung was over 100 µM throughout.

Consider `COC(=O)c1ccc2c(c1)nc(-c1cc3ccccc3[nH]c1=O)n2-c1cc(C(C)(C)C)[nH]n1`, for which the GI50 was over 23.7 µM with SN12C renal; 2.97 µM in the assay with NCI/ADR-RES ovarian; 0.526 µM in the assay with UO-31 renal; 10 µM in the assay with EKVX NSCLC; 1.7 µM with K-562 leukemia; 5.42 µM in the assay on SNB-75 CNS. The GI50 with A549 NSCLC is over 100 µM; with NCI-H522 lung it was 1.19 µM. The TGI in the assay with SN12C renal was over 100 µM; in the assay on NCI/ADR-RES ovarian, over 100 µM; with UO-31 renal, over 100 µM; with EKVX NSCLC it was over 100 µM; with K-562 leukemia it was over 100 µM; with SNB-75 CNS it was 41.5 µM. In addition, the TGI in the assay with A549 NSCLC and in the assay on NCI-H522 lung was over 100 µM throughout.

In the case of `CCC(C)n1cc(C)c2c(C(=O)NCc3c(C)cc(C)[nH]c3=O)cc(Br)cc21` (stereo not drawn), the GI50 was 38.1 µM with KM12 colon; 55.6 µM in the assay on SN12C renal; 33.8 µM in the assay on NCI/ADR-RES ovarian; 70.5 µM in the assay with UO-31 renal; 34.6 µM in the assay on K-562 leukemia; 43.5 µM in the assay on SNB-75 CNS. For the same compound, the results for the GI50 with A549 NSCLC, in the assay with HCC-2998 colon and in the assay with NCI-H522 lung were 39.7 µM, 52.4 µM and 38 µM, respectively. Also, the TGI in the assay on KM12 colon, with SN12C renal, in the assay with NCI/ADR-RES ovarian, in the assay on UO-31 renal, in the assay with K-562 leukemia and in the assay on SNB-75 CNS was over 100 µM throughout. Moreover, the TGI in the assay on A549 NSCLC, in the assay with HCC-2998 colon and in the assay on NCI-H522 lung was over 100 µM throughout.

For the compound `O=C1OCC(c2cccs2)=C1Cl`, the GI50 was 76.3 µM in the assay on KM12 colon; 26.7 µM in the assay on SN12C renal; 48.1 µM with NCI/ADR-RES ovarian; 89 µM with UO-31 renal; 40.5 µM with EKVX NSCLC; over 100 µM in the assay with K-562 leukemia. For the same compound, the GI50 is 75.9 µM with SNB-75 CNS, 41.1 µM in the assay with A549 NSCLC and 42.4 µM in the assay on NCI-H522 lung. For the same compound, the TGI in the assay on KM12 colon, in the assay on SN12C renal, with NCI/ADR-RES ovarian, in the assay with UO-31 renal, in the assay with EKVX NSCLC and in the assay with K-562 leukemia was over 100 µM each time. Also, the TGI with SNB-75 CNS, in the assay with A549 NSCLC and in the assay on NCI-H522 lung was over 100 µM in each case.

Regarding `COc1ccc(/C(Cl)=C(\C=O)c2ccc([N+](=O)[O-])cc2)cc1OC`, the TGI in the assay with KM12 colon was 94.4 µM; with SN12C renal, 22.1 µM; with NCI/ADR-RES ovarian, 53.3 µM; in the assay with UO-31 renal, 28.9 µM; with EKVX NSCLC, over 59.7 µM; in the assay with K-562 leukemia it was over 93.3 µM. For the same compound, the results for the TGI in the assay on SNB-75 CNS, in the assay on A549 NSCLC and in the assay with NCI-H522 lung were 20 µM, over 100 µM and over 35.8 µM, respectively.

On to `CCOC(=O)c1sc2nc3sc(N=Nc4ccc(Cl)cc4)c(O)n3c(=S)c2c1C`, for which the GI50 with KM12 colon was 31.2 µM; in the assay with SN12C renal, 15.5 µM; in the assay on NCI/ADR-RES ovarian, 17.4 µM; with UO-31 renal it was 53.6 µM; with EKVX NSCLC, 5.43 µM; in the assay on K-562 leukemia it was over 100 µM. The values for the GI50 in the assay with SNB-75 CNS, in the assay with A549 NSCLC and in the assay on NCI-H522 lung were 15.5 µM, 35 µM and 38.8 µM, respectively. The TGI with KM12 colon was over 100 µM; with SN12C renal, 46.5 µM; with NCI/ADR-RES ovarian, 44.6 µM; in the assay with UO-31 renal, over 100 µM; with EKVX NSCLC it was 39.6 µM; in the assay on K-562 leukemia, over 100 µM. Also, the TGI in the assay on SNB-75 CNS, in the assay on A549 NSCLC and with NCI-H522 lung was over 100 µM each time.

Consider `O=C(OCc1ccccc1)N1CCN(/[N+]([O-])=N/Oc2ccc([N+](=O)[O-])cc2[N+](=O)[O-])CC1`, for which the GI50 with KM12 colon was 8.66 µM; in the assay with SN12C renal, 11.5 µM; in the assay with NCI/ADR-RES ovarian it was 5.25 µM; in the assay on UO-31 renal, 3.82 µM; in the assay on EKVX NSCLC, 16.7 µM; in the assay with K-562 leukemia, 4.07 µM. For the same compound, the GI50 in the assay on SNB-75 CNS is 15.6 µM; in the assay on A549 NSCLC, 21.5 µM; in the assay with NCI-H522 lung, 3.66 µM. Also, the TGI in the assay on KM12 colon was 24.2 µM; with SN12C renal, 30.1 µM; in the assay with NCI/ADR-RES ovarian it was over 100 µM; in the assay with UO-31 renal it was over 100 µM; with EKVX NSCLC it was 35 µM; in the assay on K-562 leukemia, over 100 µM. For the same compound, the TGI is 32.7 µM in the assay with SNB-75 CNS, 56 µM in the assay with A549 NSCLC and over 100 µM in the assay on NCI-H522 lung.

As to `Cc1ccc(NC(=O)c2cccc([N+](=O)[O-])c2O)c([N+](=O)[O-])c1`, the TGI in the assay with KM12 colon was 23 µM; in the assay with SN12C renal, 53.8 µM; in the assay with UO-31 renal, 45.4 µM; in the assay with EKVX NSCLC, 48.4 µM; in the assay on K-562 leukemia, over 100 µM; in the assay with SNB-75 CNS, 29.4 µM. Also, the values for the TGI in the assay with A549 NSCLC, with HCC-2998 colon and in the assay with NCI-H522 lung were 68 µM, 29.5 µM and 29.5 µM, respectively.
